# From publication PMC5371851 (Toxins, 2017)
# What was measured:
# [1] = test system: human gastric epithelial (GES-1) cells
# [2] = test system: porcine IPEC-1; settings: pig intestine cell (IPEC-1); cited from earlier work
SMILES,"Dm (median-effect dose, IC50 value) [1]",EC30 (effective concentration of 30% inhibiting cell viability rate) [1],EC70 (effective concentration of 70% inhibiting cell viability rate) [1],m (slope of median-effect curves) [1],toxicity to GES-1 cells [1],toxicity relative to DON [2],relative potency in reducing cell viability (fold less) [1],effect on cell viability ([1]; human)
"CC(=O)O[C@@H]1[C@@H](O)[C@H]2O[C@@H]3C=C(C)C(=O)[C@@H](O)[C@]3(CO)[C@]1(C)[C@]21CO1 [FX, Fusarenon-X]",0.85 ppm,0.15,4.97,0.48,,,,
"CC(=O)OC[C@]12[C@H](O)C(=O)C(C)=C[C@H]1O[C@@H]1[C@H](O)C[C@@]2(C)[C@]12CO2 [15-ADON, 15-acetyldeoxynivalenol]",4.77 ppm,1.13,20.05,0.59,,,,
"CC1=C[C@H]2O[C@@H]3[C@H](O[C@@H]4O[C@H](CO)[C@@H](O)[C@H](O)[C@H]4O)C[C@](C)([C@@]2(CO)[C@H](O)C1=O)[C@]31CO1 [D3G, deoxynivalenol-3-glucoside]",,,,,no toxicity,,,
"CC1=C[C@H]2O[C@@H]3[C@H](O)[C@@H](O)[C@](C)([C@@]2(CO)[C@H](O)C1=O)[C@]31CO1 [NIV, Nivalenol]",0.58 ppm,0.08,4.36,0.42,,,,
"CC(=O)O[C@@H]1C[C@]2(C)[C@@]3(CO)[C@H](O)C(=O)C(C)=C[C@H]3O[C@H]1[C@@]21CO1 [3-ADON, 3-acetyldeoxynivalenol]",,,,,,less toxicity than DON,ten-fold,neither D3G nor 3-ADON decreased any cell viability
"CC1=C[C@H]2O[C@@H]3[C@H](O)C[C@](C)([C@@]2(CO)[C@H](O)C1=O)[C@]31CO1 [DON, deoxynivalenol]",2.99 ppm,0.75,11.99,0.61,,,,
